Target: T1, Chymotrypsin (Bos taurus, UniProt P00766)
T1 construct: purchased Sigma C 4129; host or cells: bovine pancreas (tissue-derived)
Test: AZOCOLL enzyme activity assay of chymotrypsin after exposure to reducing agent
Type: biochemical, bovine
Details: chymotrypsin exposed to DTT 10 mM in presence of SDS 1% w:v, 2 hours, 37-40° C., desalted; AZOCOLL 37° C. 20 minutes; mean of 3; positive control 0.523, negative control 0.003
Experimental: Stock trypsin and chymotrypsin solutions were solubilized from dry powder supplied by the manufacturer in PBS, pH 7.4, at room temperature. Protein concentrations were set at 1 mg/ml. Protein solutions were sterile filtered through a 0.45 μm syringe filter to eliminate potential bacterial contamination.
Working solution of the protein was prepared by dilution from concentrated stock to a final concentration of 100 μg/ml.
The protein was incubated with the agents for 2 hours. […] The protein was passed over a Sephadex G-25 column, as described above, to prepare it for the assay. After the protein was eluted from the column it was used immediately in the assay.
Each of the proteins that were exposed to an agent was assessed for its activity by incubating it with a collagen substrate with an azo containing dye. AZOCOLL was suspended in PBS at a concentration of 1 mg/ml.
For the assay, 1 ml of protein was mixed with 1 ml of AZOCOLL substrate. The reaction was performed at 37° C. for 20 minutes in Ependorff microfuge tubes. […] The aqueous solution was removed from the centrifuge tubes and the absorbance of the solution (containing soluble azo dye) was monitored at 520 nm. […]
All experiments were run in triplicate. Data reported is the mean of the 3 readings. […]

O[C@@H](CS)[C@@H](O)CS [reducing agent, dithiothreatol]
Abs. @ 520 nm: 0.031

Reference: patent publication US7078163B2, “Process for reducing mineralization of tissue used in transplantation” (Medtronic, Inc., priority 2001, dated 2006)
